In PubChem BioAssay (NCI) one finds TGI and GI50 data, which are given here for 21 compounds.

Common to all, as to assay: NCI anticancer screen, dose series, 48 h
For assay [1], the system named is EKVX NSCLC.
For assay [2], the system named is SF-539 CNS.
In assay [3] the test system is HOP-92 NSCLC.
The test system of assay [4] is NCI-H460 lung.
Assay [5] has as its system T-47D breast.
Assay [6] concerns SK-OV-3 ovarian.
Assay [7] has as its system NCI-H23 lung.
In assay [8] the test system is HCT-116 colon.
Assay [9] deals with TK-10 renal.
In assay [10] the test system is CCRF-CEM leukemia.
The test system of assay [11] is HS 578T breast.

Where “and” joins values, the source holds several entries; their conditions need not be identical. Equal entries are not always repeated.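 Cultured in 96-well plates, cells were exposed to test compound for 48 hours across five concentrations. The concentration for 50% growth inhibition is given as GI50. At the TGI there is no net growth.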

With `CC(=O)OCC1OC(n2c3c(c(-c4cccc5ccccc45)c(C#N)c2=S)CCCC3)C(OC(C)=O)C(OC(C)=O)C1OC(C)=O` (configuration not stated), the TGI in assay [1], in [2], in assay [3], in assay [4], in assay [5] and in assay [6] was over 100 µM throughout. In addition, the TGI in [7], in assay [8], in [9] and in [10] was over 100 µM in each case.
With `Cc1ccc(C(C)(C)C[P+](C)(c2ccccc2)c2ccccc2)cc1`, the TGI in assay [1] is over 100 µM; in assay [2], over 100 µM; in [3] it was 9.5 µM; in assay [4] it was over 100 µM; in assay [6] it was 64.2 µM; in assay [7], over 58.7 µM. In addition, the TGI was over 58.1 µM in [8] and over 79.3 µM in assay [10].
Regarding `CC[N+](C)(CC)CCC(O)(c1ccccc1)c1ccccc1`, the TGI in [1], in [4], in assay [5], in [6], in assay [7] and in [8] was over 100 µM in each case. Besides, the TGI in assay [11], in assay [9] and in assay [10] was over 100 µM throughout.
For the compound `Clc1ccc(N2N=C(c3cccc(Nc4ccncc4)c3)CC2c2ccc3c(c2)OCO3)cc1` (configuration not stated), the GI50 in assay [1] was 2.9 µM; in assay [2], 1.79 µM; in assay [3] it was 1.24 µM; in assay [4], 1.77 µM; in [5] it was 2.13 µM; in assay [6] it was 4.31 µM. Also, the GI50 is 1.74 µM in [7] and 3.18 µM in assay [10]. Also, the TGI in [1] was 13.3 µM; in assay [2], 3.38 µM; in [3], 2.86 µM; in assay [4], 3.29 µM; in assay [5] it was 5.07 µM; in assay [6], 24.1 µM. The TGI in assay [7] was 3.37 µM; in [10], 15.9 µM.
On to `O=C1CCC2(CCO1)OCCO2`, for which the TGI in assay [1], in assay [2], in assay [4], in assay [5], in assay [6] and in assay [7] was over 100 µM in each case. In addition, the TGI in [8], in [11], in assay [9] and in [10] was over 100 µM in each case.
For `CC1(C)OCC(C(O)C2OC(C)(C)OC2C=O)O1` (configuration not stated), the TGI in [1], in [6], in assay [7], in [8], in assay [11] and in assay [9] was over 100 µM throughout. In assay [10], this compound registered a TGI of over 100 µM.
Regarding `N=C1N(S(=O)(=O)c2ccccc2)[C@@H](Cc2ccccc2)[C@H](c2ccccc2)C1(c1ccccc1)c1ccccc1`, the TGI in assay [1], in [2], in [4], in [6], in assay [7] and in assay [8] was over 100 µM in each case. For the same compound, the TGI in assay [11], in [9] and in assay [10] was over 100 µM each time.
Regarding `C/C(=C\c1ccccn1)c1ccccn1`, the TGI in assay [1], in assay [3], in assay [4], in [6], in assay [7] and in assay [8] was over 100 µM throughout. Moreover, the TGI in assay [11] and in assay [9] was over 100 µM each time.
`Cn1nc2n(c1=O)CCCN2`: the TGI in assay [1], in assay [2], in [3], in [4], in assay [7] and in assay [8] was over 100 µM each time. Besides, the TGI in [11], in assay [9] and in [10] was over 100 µM each time.
On to `Cc1ccc(C(=O)N/N=C(\N=Nc2cccc(Cl)c2)c2ccc(N(CCC#N)CCC#N)cc2C)cc1`, for which the TGI in assay [1], in assay [2], in assay [3], in assay [4], in [5] and in assay [6] was over 100 µM in each case. Moreover, the TGI in assay [7], in [8], in assay [9] and in [10] was over 100 µM each time.
Consider `[Cl][Pt+2][Cl].[NH-]C1CCCCC1[NH-]` (configuration not stated), for which the TGI in assay [1] was > 100 µM and 55.2 µM and 31.1 µM; in assay [2] it was over 100 µM; in [3], over 100 µM; in assay [4] it was 17.9 µM and 36.1 µM and 14 µM; in assay [6], over 100 µM; in assay [7], > 58.2 µM and > 100 µM and 17.5 µM. Further, the TGI in assay [8] was > 100 µM and 16 µM; in assay [10] it was over 100 µM. For the same compound, the GI50 in assay [2] was 21.6 µM and 6.79 µM and 6.99 µM; in assay [3], 35.3 µM and > 100 µM and 29.7 µM; in [4], 1.94 µM and 0.903 µM and 0.287 µM; in assay [6], 18.5 µM and > 80.9 µM and 25.1 µM; in assay [7], 7.21 µM and 3.26 µM and 1.07 µM; in assay [10], 3.19 µM and 2.91 µM and 0.872 µM.
For `COC(=O)C1CCC(=O)N1C(=O)Cc1ccc(OC)cc1` (configuration not stated), the TGI in assay [1], in assay [3], in [4], in assay [6], in assay [7] and in [8] was over 100 µM throughout. In assay [9], the TGI is over 100 µM.
Take `Cc1ccccc1-n1c(C)nc2c1C(=O)c1ccccc1C2=O`: the TGI in [1], in [2], in assay [4], in assay [7], in assay [8] and in assay [9] was over 100 µM throughout. The TGI in [10] was over 100 µM.
As to `N/N=C1/C2CN3CCN(C2)CC1(c1ccc([N+](=O)[O-])cc1)C3`, the TGI in assay [1], in [2], in assay [7], in assay [8], in assay [11] and in [9] was over 100 µM throughout.
On to `Nc1cccc2c1C(=O)c1cccc(N)c1C2=O`, for which the TGI in assay [1], in assay [2], in [3], in assay [4], in assay [6] and in [7] was over 100 µM in each case. Also, the TGI in assay [8], in [9] and in assay [10] was over 100 µM throughout.
`CN(C)CCNC(=O)c1ccc(NCCCN(C)CCCNc2ccc3c(=O)n(CCN(C)C)c(=O)n4c5ccccc5c(=O)c2c34)c2c(=O)c3ccccc3[nH]c12`: the TGI in assay [1] stood at 0.567 µM; in assay [2], 2.46 µM; in [3], 2.92 µM; in assay [4], 0.0296 µM; in [5], 1.89 µM; in [6] it was 0.411 µM. Further, the TGI in assay [7] came to 0.27 µM; in assay [8], 0.0704 µM; in assay [9], 0.687 µM.
With `CC(=O)/C(=C/n1c(=S)[nH]c2ccccc21)C(=O)Nc1ccccc1C`, the TGI in assay [1], in assay [2], in assay [3], in assay [4], in assay [5] and in assay [6] was over 100 µM throughout. The TGI in assay [7], in assay [8] and in [9] was over 100 µM throughout.
For `C[C@@H](O)C(=O)N1[C@@H]2CC3CC[C@]2(CS1(=O)=O)C3(C)C`, the TGI in [1], in assay [2], in assay [3], in [4], in assay [5] and in [6] was over 100 µM throughout. The TGI is over 100 µM in assay [7], over 100 µM in [8], over 100 µM in [9] and 72.9 µM in [10].
For the compound `C/C=C\C(CC(=O)NCCc1cn(C(=O)OCc2ccccc2)c2ccccc12)CC(=O)OC` (configuration not stated), the TGI in [1], in assay [3], in [4], in [6], in [7] and in assay [8] was over 100 µM throughout. In addition, the TGI in [11] and in assay [9] was over 100 µM in each case.
For `Cc1ccc(C2=NOC(=O)[C@@H]3CCCC[C@@H]23)cc1`, the TGI in [1], in [2], in assay [5], in assay [6], in assay [7] and in assay [8] was over 100 µM each time. Besides, the TGI in [11], in assay [9] and in assay [10] was over 100 µM throughout.
For `CCOC(=O)C(=[N+]=[N-])C(=O)Nc1nn2nnnc2c2ccccc12`, the TGI in [1], in assay [2], in [3], in [4], in [6] and in [7] was over 100 µM in each case. Besides, the TGI in [8] and in assay [10] was over 100 µM in each case.
